How the values were obtained:
Type in all cases: cell-based
CFTR G551D mutant = target: T1, CFTR G551D mutant (Homo sapiens, UniProt P13569, G551D); test: YFP-halide influx assay for the CFTR-G551D mutation (HEK293 cells); details: HEK293 cells expressing CFTR G551D and YFP reporter; forskolin 10.67 μM; read-out: EC50 measured by YFP-halide influx assay for the CFTR-G551D
T1 construct: expressed in transfected cells; host or cells: HEK293 (reverse transfection with plasmids)
Outline: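 HEK293 cells reverse-transfected with CFTR G551D and halide-sensitive YFP, expressed 24 h at 37 °C. Iodide-induced fluorescence quench recorded for 7 s after I^− injection; response as 1−F/F0, EC50 from concentration plot.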

CFTR ΔF508 mutant [1] = target: T2, CFTR ΔF508 mutant (Homo sapiens, UniProt P13569, DEL508-508); test: YFP-halide influx assay for the CFTR-ΔF508 mutation (96 well, CFBE41o- cells); details: compounds of the invention, 96 well, forskolin 10.67 μM, read-out: EC50 measured by YFP-halide influx assay for the CFTR-ΔF508
T2 construct: expressed in transfected cells; host or cells: CFBE41o- (adenoviral transduction)
T2 sequence (P13569 with tags, fused parts or gaps DEL508-508): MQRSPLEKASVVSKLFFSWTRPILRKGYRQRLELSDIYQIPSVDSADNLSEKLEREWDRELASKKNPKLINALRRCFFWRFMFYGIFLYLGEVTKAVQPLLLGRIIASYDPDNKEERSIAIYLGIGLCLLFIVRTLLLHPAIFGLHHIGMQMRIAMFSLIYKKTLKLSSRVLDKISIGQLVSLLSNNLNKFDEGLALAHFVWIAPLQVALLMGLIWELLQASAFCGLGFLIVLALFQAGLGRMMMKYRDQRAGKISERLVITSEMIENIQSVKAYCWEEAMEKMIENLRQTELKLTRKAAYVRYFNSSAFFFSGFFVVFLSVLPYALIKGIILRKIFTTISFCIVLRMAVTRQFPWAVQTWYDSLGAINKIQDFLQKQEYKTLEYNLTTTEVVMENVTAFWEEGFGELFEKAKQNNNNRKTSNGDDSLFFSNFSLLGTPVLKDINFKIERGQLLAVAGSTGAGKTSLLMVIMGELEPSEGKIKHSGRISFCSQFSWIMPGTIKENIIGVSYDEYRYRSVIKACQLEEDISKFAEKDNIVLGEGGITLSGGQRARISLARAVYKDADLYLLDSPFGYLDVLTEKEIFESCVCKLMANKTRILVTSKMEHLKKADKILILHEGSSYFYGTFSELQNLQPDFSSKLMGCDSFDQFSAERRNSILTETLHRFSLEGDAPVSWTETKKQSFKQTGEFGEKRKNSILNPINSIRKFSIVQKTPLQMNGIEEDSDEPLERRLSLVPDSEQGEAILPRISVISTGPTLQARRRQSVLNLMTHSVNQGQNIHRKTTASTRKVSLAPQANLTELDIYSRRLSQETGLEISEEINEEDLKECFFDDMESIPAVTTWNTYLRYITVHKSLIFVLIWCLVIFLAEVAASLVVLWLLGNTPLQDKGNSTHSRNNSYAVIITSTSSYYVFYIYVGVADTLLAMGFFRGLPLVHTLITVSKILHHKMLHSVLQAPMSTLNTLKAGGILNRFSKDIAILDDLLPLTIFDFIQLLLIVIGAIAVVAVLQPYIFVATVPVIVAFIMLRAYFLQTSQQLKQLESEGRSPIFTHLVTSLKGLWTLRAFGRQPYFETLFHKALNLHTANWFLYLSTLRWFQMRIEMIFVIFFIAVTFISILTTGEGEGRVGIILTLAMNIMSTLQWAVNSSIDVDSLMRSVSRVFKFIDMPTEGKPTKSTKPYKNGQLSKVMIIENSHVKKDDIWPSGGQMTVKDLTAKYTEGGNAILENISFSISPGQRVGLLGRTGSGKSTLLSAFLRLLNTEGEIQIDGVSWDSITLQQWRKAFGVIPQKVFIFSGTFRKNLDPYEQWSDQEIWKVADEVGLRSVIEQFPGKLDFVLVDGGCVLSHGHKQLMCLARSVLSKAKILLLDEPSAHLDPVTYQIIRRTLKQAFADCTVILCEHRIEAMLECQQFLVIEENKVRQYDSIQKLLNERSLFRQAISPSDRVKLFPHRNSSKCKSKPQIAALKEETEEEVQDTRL
Text: 6.1. YFP-Halide Influx Assay for the CFTR-ΔF508 Mutation
(§1) The YFP halide influx assay measures the functionality of the cystic fibrosis Transmembrane Conductance regulator (CFTR) channels in the cystic fibrosis bronchial epithelium cell line CFBE41o-. The assay is used to evaluate the capacity of compounds to increase the open probability of existing CFTR channels in the membrane. It makes use of the observation that the yellow fluorescent protein (YFP) variant YFP H148Q, I152L has its fluorescence substantially quenched by halide ions like Cl^− and I^−. (Galietta et al., 2001; Nagai et al., 2002)
For this purpose, CFBE410-cells are seeded in 96 well plates (6000 CFBE cells/well). One day after seeding, the CFBE cells are transduced with adenoviral vectors that direct the expression of the CFTR ΔF508 mutant and of the YFP reporter. Cells are incubated at 27° C., 5% CO2 for 24 hours so as to allow for the proper folding and migration to the membrane of the CFTR channel or treated with a CFTR modulator during 24 h at 37° C.
(§2) The F induced quenching of fluorescence is recorded immediately after injection of I^− for 7 seconds. The capacity of a compound to increase the channel opening is directly correlated with the decrease in fluorescence, and is expressed as (1-(fluorescence after 7 seconds (F)/fluorescence before injection (F0))) and an EC50 can be derived from a (1−F/F0) vs compound concentration plot.

CFTR-R117H = target: T3, CFTR-R117H (Homo sapiens, UniProt P13569, R117H); test: YFP-halide influx assay for the CFTR-R117H; details: CFTR-R117H mutant; read-out: EC50 measured by YFP-halide influx assay for the CFTR-R117H
T3 construct: expressed in transfected cells
T3 sequence (P13569 whole entry R117H): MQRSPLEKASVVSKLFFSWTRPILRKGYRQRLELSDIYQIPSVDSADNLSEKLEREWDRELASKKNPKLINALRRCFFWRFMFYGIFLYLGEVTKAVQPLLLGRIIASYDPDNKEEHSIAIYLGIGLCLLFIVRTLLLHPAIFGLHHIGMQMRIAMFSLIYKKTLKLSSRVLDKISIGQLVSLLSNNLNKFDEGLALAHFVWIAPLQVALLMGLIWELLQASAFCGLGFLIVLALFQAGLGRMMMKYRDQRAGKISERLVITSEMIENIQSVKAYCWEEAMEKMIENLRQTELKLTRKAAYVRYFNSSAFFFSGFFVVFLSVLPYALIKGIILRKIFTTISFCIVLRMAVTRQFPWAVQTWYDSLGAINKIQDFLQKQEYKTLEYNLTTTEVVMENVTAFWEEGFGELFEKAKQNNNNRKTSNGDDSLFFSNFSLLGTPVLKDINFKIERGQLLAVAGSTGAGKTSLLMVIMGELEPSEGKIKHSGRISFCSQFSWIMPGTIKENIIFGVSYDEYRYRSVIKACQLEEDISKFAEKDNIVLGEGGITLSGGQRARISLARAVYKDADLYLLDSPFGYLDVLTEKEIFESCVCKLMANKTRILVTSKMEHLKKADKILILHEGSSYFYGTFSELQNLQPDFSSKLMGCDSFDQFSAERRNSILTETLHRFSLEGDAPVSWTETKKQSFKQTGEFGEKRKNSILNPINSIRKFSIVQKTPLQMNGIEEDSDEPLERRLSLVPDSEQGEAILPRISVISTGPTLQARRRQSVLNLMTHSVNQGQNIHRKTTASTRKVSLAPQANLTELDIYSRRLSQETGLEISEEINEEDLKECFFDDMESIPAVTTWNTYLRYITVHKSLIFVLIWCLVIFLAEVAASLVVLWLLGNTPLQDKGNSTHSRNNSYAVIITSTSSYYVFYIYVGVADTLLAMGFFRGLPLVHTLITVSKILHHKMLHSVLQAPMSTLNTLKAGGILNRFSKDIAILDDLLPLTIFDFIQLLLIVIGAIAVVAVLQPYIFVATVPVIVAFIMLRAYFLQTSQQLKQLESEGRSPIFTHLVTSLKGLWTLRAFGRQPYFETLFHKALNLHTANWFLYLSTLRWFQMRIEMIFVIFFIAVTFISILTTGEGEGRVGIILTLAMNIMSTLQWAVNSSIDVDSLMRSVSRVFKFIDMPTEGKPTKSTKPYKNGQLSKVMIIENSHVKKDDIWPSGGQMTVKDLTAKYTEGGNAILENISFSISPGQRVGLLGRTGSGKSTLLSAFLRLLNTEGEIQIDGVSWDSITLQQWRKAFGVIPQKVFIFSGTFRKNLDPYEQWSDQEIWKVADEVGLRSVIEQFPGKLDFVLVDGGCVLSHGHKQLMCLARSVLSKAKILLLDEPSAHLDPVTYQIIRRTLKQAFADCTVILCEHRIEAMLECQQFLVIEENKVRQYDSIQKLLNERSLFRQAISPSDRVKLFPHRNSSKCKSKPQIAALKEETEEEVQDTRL
Text: as §1, with “channels.” for “channels in the cystic fibrosis bronchial epithelium cell line CFBE41o-.”, “channel opening” for “open probability”, “existing mutant” for “existing”, “I152L, F47L” for “I152L”, “2001)” for “2001; Nagai et al., 2002)”
(§3) For this purpose, HEK293-cells are seeded in 96 well plates. During seeding, the cells are reverse-transfected with plasmid vectors that direct the expression of the CFTR G551D mutant and of the YFP reporter. Cells are incubated at 37° C., 5% CO2 for 24 hours so as to allow for sufficient expression of the CFTR protein.
as §2, with “I^−-induced” for “F induced”, “(1−(fluorescence” for “(1-(fluorescence”
(§4) Similar YHA assays were developed for other channel gating defective or channel conductance defective CFTR mutants to determine effect of compound on channel activity. Examples of mutants are G178R, G1349D, S549N, R117H, R334W. This assay is also used for additional class I CFTR mutants, including G542X, W1282X; class II mutants including N1303K, and for class III mutants including S1251N; or wild-type CFTR.

CFTR-G178R = target: T4, CFTR-G178R (Homo sapiens, UniProt P13569, G178R); test: YFP-halide influx assay for the CFTR-G178R; details: read-out: EC50 measured by YFP-halide influx assay for the CFTR-G178R
T4 construct: expressed in transfected cells
T4 sequence (P13569 whole entry G178R): as the sequence (P13569 whole entry R117H) above, with H117R, G178R counted along it
Text: as §1, with “channels.” for “channels in the cystic fibrosis bronchial epithelium cell line CFBE41o-.”, “channel opening” for “open probability”, “existing mutant” for “existing”, “I152L, F47L” for “I152L”, “2001)” for “2001; Nagai et al., 2002)”
as §3
as §2, with “I^−-induced” for “F induced”, “(1−(fluorescence” for “(1-(fluorescence”
as §4

CFTR-G1349D = target: T5, CFTR-G1349D (Homo sapiens, UniProt P13569, G1349D); test: YFP-halide influx assay for the CFTR-G1349D; details: CFTR-G1349D mutant; read-out: EC50 measured by YFP-halide influx assay for the CFTR-G1349D
T5 construct: expressed in transfected cells
T5 sequence (P13569 whole entry G1349D): as the sequence (P13569 whole entry R117H) above, with H117R, G1349D counted along it
Text: as §1, with “channels.” for “channels in the cystic fibrosis bronchial epithelium cell line CFBE41o-.”, “channel opening” for “open probability”, “existing mutant” for “existing”, “I152L, F47L” for “I152L”, “2001)” for “2001; Nagai et al., 2002)”
as §3
as §2, with “I^−-induced” for “F induced”, “(1−(fluorescence” for “(1-(fluorescence”
as §4

CFTR ΔF508 mutant [2] = target: T2, CFTR ΔF508 mutant; test: YFP-halide influx assay for the CFTR-ΔF508 mutation (384 well, CFBE41o- cells, FDSS/μCell); details: forskolin 10.67 μM, fluorescence after 36 seconds, read-out: EC50 measured by YFP-halide influx assay for the CFTR-ΔF508
Outline: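 CFBE41o- cells were adenovirally transduced with ΔF508 CFTR and the YFP H148Q/I152L reporter. Cells were then held 24 h at 27 °C or treated 24 h at 37 °C with a CFTR modulator. Iodide-induced quench was recorded for 2 min, and EC50 was derived from 1−F/F0 at 36 s against compound concentration.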

CFTR-S549N = target: T6, CFTR-S549N (Homo sapiens, UniProt P13569, S549N); test: YFP-halide influx assay for the CFTR-S549N; details: CFTR-S549N mutant; read-out: EC50 measured by YFP-halide influx assay for the CFTR-S549N
T6 construct: expressed in transfected cells
T6 sequence (P13569 whole entry S549N): as the sequence (P13569 whole entry R117H) above, with H117R, S549N counted along it
Text: as §1, with “channels.” for “channels in the cystic fibrosis bronchial epithelium cell line CFBE41o-.”, “channel opening” for “open probability”, “existing mutant” for “existing”, “I152L, F47L” for “I152L”, “2001)” for “2001; Nagai et al., 2002)”
as §3
as §2, with “I^−-induced” for “F induced”, “(1−(fluorescence” for “(1-(fluorescence”
as §4

T1 sequence (P13569 whole entry G551D): as the sequence (P13569 whole entry R117H) above, with H117R, G551D counted along it

SMILES	EC50 (CFTR G551D mutant) [nM]	EC50 (CFTR ΔF508 mutant [1]) [nM]	EC50 (CFTR-R117H) [nM]	EC50 (CFTR-G178R) [nM]	EC50 (CFTR-G1349D) [nM]	EC50 (CFTR ΔF508 mutant [2]) [nM]	EC50 (CFTR-S549N) [nM]
CC1(C)Cc2c(sc(NC(=O)c3cc(C4CC4)[nH]n3)c2C(N)=O)C(C)(C)O1 [Compound 13, N-(3-carbamoyl-5,5,7,7-tetramethyl-5,7-dihydro-4H-thieno[2,3-c]pyran-2-yl)-5-cyclopropyl-1H-pyrazole-3-carboxamide]	198	17.9	177	98.8	75.3	6.13	158
CC(C)c1cc(C(=O)Nc2sc3c(c2C(N)=O)CC(C)(C)OC3(C)C)n[nH]1 [Compound 14, N-(3-carbamoyl-5,5,7,7-tetramethyl-5,7-dihydro-4H-thieno[2,3-c]pyran-2-yl)-5-isopropyl-1H-pyrazole-3-carboxamide]	377	32.2	207	169	371	9.44	253
CC1(C)Cc2c(sc(NC(=O)c3cc(C(F)(F)F)[nH]n3)c2C(N)=O)C(C)(C)O1 [Compound 15, N-(3-carbamoyl-5,5,7,7-tetramethyl-5,7-dihydro-4H-thieno[2,3-c]pyran-2-yl)-5-(trifluoromethyl)-1H-pyrazole-3-carboxamide]	77.5	7.56	158	87.5	75.3	2.72	208
CC1(C)Cc2c(sc(NC(=O)c3n[nH]cc3Br)c2C(N)=O)C(C)(C)O1 [Compound 33, 4-bromo-N-(3-carbamoyl-5,5,7,7-tetramethyl-5,7-dihydro-4H-thieno[2,3-c]pyran-2-yl)-1H-pyrazole-3-carboxamide]	92	4	165	88.6	116	6.93	164
CC1(C)Cc2c(sc(NC(=O)C(O)C(C)(C)C)c2C(N)=O)C(C)(C)O1 (stereo not shown) [Compound 38, 2-(2-hydroxy-3,3-dimethylbutanamido)-5,5,7,7-tetramethyl-5,7-dihydro-4H-thieno[2,3-c]pyran-3-carboxamide]	–	5	64.3	96.8	517	5.99	690
CC(C)C(O)C(=O)Nc1sc2c(c1C(N)=O)CC(C)(C)OC2(C)C (stereo not shown) [Compound 39, 2-(2-hydroxy-3-methylbutanamido)-5,5,7,7-tetramethyl-5,7-dihydro-4H-thieno[2,3-c]pyran-3-carboxamide]	–	6	145	1360	1340	4.51	1100
CC1(C)Cc2c(sc(NC(=O)C3(CO)CCC3)c2C(N)=O)C(C)(C)O1 [Compound 40, 2-(1-(hydroxymethyl)cyclobutanecarboxamido)-5,5,7,7-tetramethyl-5,7-dihydro-4H-thieno[2,3-c]pyran-3-carboxamide]	–	32	2900	> 3330	1910	35.6	1930

Source: patent US9351955B2, “Compounds and pharmaceutical compositions thereof for the treatment of cystic fibrosis” (Galapagos NV, priority 2013, dated 2016)
